The source of these data is patent publication US20130109698A1, “Small Molecule Inhibitors of Functions of the HIV-1 Matrix Protein” (priority 2010, published 2013).

SMILES strings stand for the structures.

One test has as its system HIV-1 IIIB. Briefly: Infection of Sup-T1 cells by HIV-1 IIIB, p24 ELISA. The conditions noted are these: 50 μM, three days.
Test [1] relates to luciferase-reporter HIV-1 NL4-3 pseudotyped with HxBc2 envelope produced in 293T cells. Briefly: microbe, parasite or virus in culture.
The target of another test is T1, HIV-1 MA (Human immunodeficiency virus type 1 group M subtype B, UniProt P03348).
T1 construct: His6 (N, cleaved yes); SUMO (N, cleaved yes); made in house; host or cells: Escherichia coli BL21 (DE3) Codon+-RIL
Briefly: Surface plasmon resonance direct binding to immobilized HIV-1 MA. The conditions noted are these: CM7 sensor chip, 10 μM (FIG. 14). The source says:
An assay was devised to monitor the interactions of small-molecule compounds to HIV-1 MA using SPR. In this assay, HIV-1LA1 MA was immobilized to the flow cells of a CM5 sensor chip to high density (˜1.3 kRU) or a CM7 sensor chip to high density (19 kRU) using standard amine coupling. A reference surface was similarly created by immobilizing the SUMO protein or a nonspecific antibody ARC4033 (antimouse/rat interferon-γ: BioSource). In small-molecule assays, the buffering system used is important due to the low responses obtained in binding assays. […] A stock solution of the MTI compounds was prepared by dissolving in 100% dimethyl sulfoxide (DMSO) to a final concentration of 10 mM.
To prepare the sample for analysis, 30 μL of the stock solution of the compound of the invention was added to sample preparation buffer (PBS, pH 7.2) to a final volume of 1 mL and mixed thoroughly. Preparation of analyte in this manner ensured that the concentration of DMSO was matched with that of running buffer with 3% DMSO. Lower concentrations of each compound were then prepared by two-fold serial dilutions into running buffer (PBS, 3% DMSO, pH 7.2). These compound dilutions were then injected over the control and MA surfaces at a flow rate of 30 μL min^−, for a 4-min association phase, followed by a 5-min dissociation phase.
In one aspect, owing to the relatively fast dissociation rates of these compounds, regeneration of these surfaces was accomplished by extensive washing of the system followed by a 5 min wait phase, a second wash, and a final 15 min wait phase. To secure complete regeneration, a buffer injection (5 min^on/5 min^off) was performed before each subsequent injection of compound.
Response to a small-molecule compound (NBD-556) specific for HIV-1 gp120 was also monitored to ensure specificity.
Data analysis was performed using BIAEvaluation 4.0 software (GE Healthcare). The responses of a buffer injection and responses from the ARC4033-immobilized reference cell were subtracted to account for nonspecific binding. The average maximum response was generated from a minimum of 3 data sets and was used to define the standard deviation for each compound binding to the HIV-1 MA protein.
The MTI compounds are predicted to interact with HIV-1 MA and thereby disrupt its functioning during the HIV-1 replication cycle. However, it is possible that a compound might exert its action via another mechanism not involving MA. Therefore, studies were performed to determine that the MTI compounds are directed against HIV-1 MA. The direct interaction of compounds CMPD-18, CMPD-17, CMPD-7, and CMPD-14 with HIV-1 MA was assayed using surface plasmon resonance interaction analyses. Wild-type HIV-1 MA protein was overproduced in E. coli using the pETHSUL expression system and purified using successive IMAC strategies, followed by an ion exchange chromatographic step as outlined in Materials and Methods. FIG. 6 illustrates the purification profile of HIV-1 MA. The purified MA was then immobilized onto the surface of a high-capacity CM7 sensor chip. Similarly, the monoclonal antibody ARC4033 (antimouse/rat interferon-γ; BioSource, Invitrogen, Carlsbad, Calif.) was immobilized on a CM7 sensor chip and was used to correct for background binding and instrument and buffer artifacts.
In general terms: In SPR one partner is held on a chip, and binding of the other changes the refractive index at the surface.

For the compound `O=C1NC(c2ccccc2)(c2ccccc2)C(=O)N1CN1CCC(c2nc3ccccc3o2)CC1` [CMPD-13, 3-((4-(benzo[d]oxazol-2-yl)piperidin-1-yl)methyl)-5,5-diphenylimidazolidine-2,4-dione], in the test on HIV-1 IIIB, the “HIV-1 replication (p24), in words” value is “no effect”.

As to `COc1ccc(NC(C)=O)cc1NC(=O)Cn1cnc2scc(-c3ccc(C)s3)c2c1=O` [CMPD-10, N-(5-acetamido-2-methoxyphenyl)-2-(5-(5-methylthiophen-2-yl)-4-oxothieno[2,3-d]pyrimidin-3(4H)-yl)acetamide], the IC50 (usually the midpoint of a concentration-inhibition curve) in test [1] was 31 µM. The “HIV-1 replication (p24), in words” value with HIV-1 IIIB is “inhibited HIV-1 replication, albeit to a lesser extent”.

As for `CC1(C)CC(NC(=O)C(=O)Nc2ccc(Cl)cc2)CC(C)(C)N1` [NBD-556, N-(4-chlorophenyl), —N′-(2,2,6,6-tetramethylpiperidin-4-yl)-oxalamide, reference compound], the “direct interaction with sensor chip-immobilized HIV-1 MA” value on HIV-1 MA was “no such interaction”.

`O=C(NCc1ccc(CN2CCCC2)cc1)c1ccc(C2SCCCS2)cc1` [CMPD-19, 4-(1,3-dithian-2-yl)-N-(4-(pyrrolidin-1-ylmethyl)benzyl)benzamide] yielded an IC50 in test [1] of 26 µM. Further, the “HIV-1 replication (p24), in words” value with HIV-1 IIIB was “inhibited”.
